Series [1] is described as follows: Inhibition of ABCB1 in multidrug-resistant human SW620/Ad300 cells assessed as increase in reversal of resistance to paclitaxel-induced cytotoxicity by measuring paclitaxel IC50 pre-incubated for 4 hrs followed by paclitaxel addition and measured after 72 hrs by MTT assay (Rvb = 4.23 +/- 0.6 uM). Background: Formazan colour is commonly taken as a measure of viable cells.

Series [2] in a line: Inhibition of ABCB1 in multidrug-resistant human KB-C2 cells assessed as increase in reversal of resistance to paclitaxel-induced cytotoxicity by measuring paclitaxel IC50 at 20 uM pre-incubated for 4 hrs followed by paclitaxel addition and measured after 72 hrs by MTT assay (Rvb = 1886.37 +/- 243.05 nM).
Series [3] is described as follows: Inhibition of ABCB1 in multidrug-resistant human SW620/Ad300 cells assessed as increase in reversal of resistance to paclitaxel-induced cytotoxicity by measuring paclitaxel IC50 at 20 uM pre-incubated for 4 hrs followed by paclitaxel addition and measured after 72 hrs by MTT assay (Rvb = 4233.18 +/- 499.10 nM).
The nature of series [4]: Inhibition of ABCB1 in multidrug-resistant human KB-C2 cells assessed as increase in reversal of resistance to paclitaxel-induced cytotoxicity by measuring paclitaxel IC50 at 10 uM pre-incubated for 4 hrs followed by paclitaxel addition and measured after 72 hrs by MTT assay (Rvb = 1886.37 +/- 243.05 nM).
Series [5] can be described thus: Inhibition of ABCB1 (unknown origin) expressed in HEK293 cells assessed as increase in reversal of resistance to paclitaxel-induced cytotoxicity by measuring paclitaxel IC50 at 20 uM pre-incubated for 4 hrs followed by paclitaxel addition and measured after 72 hrs by MTT assay (Rvb = 91.40 +/- 23.32 nM).
Series [6] can be described thus: Inhibition of ABCB1 in multidrug-resistant human SW620/Ad300 cells assessed as increase in reversal of resistance to paclitaxel-induced cytotoxicity by measuring paclitaxel IC50 at 10 uM pre-incubated for 4 hrs followed by paclitaxel addition and measured after 72 hrs by MTT assay (Rvb = 4233.18 +/- 499.10 nM).
A short description of series [7]: Inhibition of ABCB1 (unknown origin) expressed in HEK293 cells assessed as increase in reversal of resistance to paclitaxel-induced cytotoxicity by measuring paclitaxel IC50 at 10 uM pre-incubated for 4 hrs followed by paclitaxel addition and measured after 72 hrs by MTT assay (Rvb = 91.40 +/- 23.32 nM).

As usually defined, the IC50 is the concentration at which inhibition is half-maximal. In the case of `Cc1cc(Nc2ccc(F)cc2)n2nc(SCc3csc4ccc(Cl)cc34)nc2n1`, the IC50 in series [1] came to 2840 nM. On the same count and under the same terms, under `Cc1cc(Nc2ccc(C(=O)O)cc2)n2nc(SCc3nc4ccccc4[nH]3)nc2n1` stands 4080 nM. Same read-out and setting: the figure for `Cc1cc(Nc2ccc(F)c(Cl)c2)n2nc(SCc3nc4ccccc4[nH]3)nc2n1` is 770 nM; for `Cc1cc(Nc2ccccc2F)n2nc(SCc3nc4ccccc4[nH]3)nc2n1` it is 220 nM. Regarding `Cc1ccc(Nc2cc(C)nc3nc(SCc4nc5ccccc5[nH]4)nn23)cc1`, the IC50 in series [1] came to 500 nM. As to `Cc1cc(Nc2ccc(F)cc2)n2nc(SCC(=O)c3ccccc3)nc2n1`, the half-maximal inhibitory concentration (IC50) in series [1] was 1260 nM. Still for that read-out and setting: under `Cc1cc(Nc2ccc(F)cc2)n2nc(SCc3ccc(Br)cc3)nc2n1` stands 1370 nM; under `Cc1cc(Nc2ccc(F)c(C)c2)n2nc(SCc3nc4ccccc4[nH]3)nc2n1`, 470 nM; under `Cc1cc(Nc2ccc(N3CCN(C)CC3)cc2)n2nc(SCc3nc4ccccc4[nH]3)nc2n1`, 1590 nM. Regarding `Cc1cc(Nc2ccc(Cl)cc2Cl)n2nc(SCc3nc4ccccc4[nH]3)nc2n1`, the IC50 in series [1] is 710 nM. On the same count and under the same terms, the figure for `CC(=O)c1ccc(Nc2cc(C)nc3nc(SCc4nc5ccccc5[nH]4)nn23)cc1` is 760 nM; for `Cc1cc(Nc2ccc(Br)cc2)n2nc(SCc3nc4ccccc4[nH]3)nc2n1` it is 450 nM; for `Cc1cc(Nc2cccc(F)c2)n2nc(SCc3nc4ccccc4[nH]3)nc2n1` it is 520 nM. The same measure, in the same setting: the figure for `Cc1cc(Nc2ccc(F)cc2)n2nc(SCC3CC3)nc2n1` is 4110 nM. Same read-out and setting: under `Cc1cc(Nc2ccc(C(F)(F)F)cc2)n2nc(SCc3nc4ccccc4[nH]3)nc2n1` stands 850 nM; under `Cc1cc(Nc2ccc(F)cc2)n2nc(SCc3ccccc3Br)nc2n1`, 1640 nM; under `CCCSc1nc2nc(C)cc(Nc3ccc(F)cc3)n2n1`, 3540 nM. For the molecule `O=c1cc(-c2ccccc2)[nH]c2nc(SCc3nc4ccccc4[nH]3)nn12`, the 50% inhibitory concentration (IC50) in series [1] worked out at 660 nM. On to `COc1cccc(Nc2cc(C)nc3nc(SCc4nc5ccccc5[nH]4)nn23)c1`, for which, in series [1], the IC50 is 570 nM. For `CC(C)c1cc(Nc2ccc(F)cc2)n2nc(SCc3ccccc3)nc2n1`, the half-inhibitory concentration (IC50) in series [1] stood at 1440 nM. Same read-out and setting: under `Cc1cc(Nc2ccc(F)cc2)n2nc(SCc3ccc(F)cc3)nc2n1` stands 1270 nM; under `C#CCSc1nc2nc(C)cc(Nc3ccc(F)cc3)n2n1`, 3360 nM; under `Cc1ccc(Nc2cc(C)nc3nc(SCc4nc5ccccc5[nH]4)nn23)c(F)c1`, 630 nM. As to `Cc1cc(Nc2ccc(F)cc2)n2nc(SCc3ccc(C(F)(F)F)cc3)nc2n1`, in series [1], the 50% inhibitory concentration (IC50) was 2570 nM. For the molecule `Cc1cc(Nc2ccc(F)cc2)n2nc(SCc3c(Cl)cccc3Cl)nc2n1`, in series [1], the half-inhibitory concentration (IC50) is 1930 nM. The same measure, in the same setting: the figure for `Cc1cc(Nc2cc(C)[nH]n2)n2nc(SCc3nc4ccccc4[nH]3)nc2n1` is 1570 nM; for `Cc1cc(Nc2ccc3c(C)cc(=O)oc3c2)n2nc(SCc3nc4ccccc4[nH]3)nc2n1` it is 1140 nM. The same measure, in the same setting: the figure for `COc1cc(Nc2cc(C)nc3nc(SCc4nc5ccccc5[nH]4)nn23)cc(OC)c1OC` is 250 nM. On to `Cc1cc(Nc2ccc(O)cc2)n2nc(SCc3nc4ccccc4[nH]3)nc2n1`, for which, in series [1], the IC50 turned out to be 2380 nM.

Regarding `Cc1cc(Nc2ccc(F)cc2)n2nc(SCCc3ccccc3)nc2n1`, the half-inhibitory concentration (IC50) in series [1] is 1550 nM. Take `Cc1cc(Nc2ccc(OC(F)(F)F)cc2)n2nc(SCc3nc4ccccc4[nH]3)nc2n1`: the IC50 in series [1] amounted to 720 nM. As for `Cc1cc(Nc2ccc(F)cc2)n2nc(SCc3cccc4ccccc34)nc2n1`, the half-maximal inhibitory concentration (IC50) in series [1] came out at 1740 nM. The same measure, in the same setting: under `Cc1cc(Nc2ccc(F)cc2)n2nc(SCc3ccc([N+](=O)[O-])cc3)nc2n1` stands 2280 nM; under `COc1ccc(Nc2cc(C)nc3nc(SCc4nc5ccccc5[nH]4)nn23)cc1`, 320 nM. The same measure, in the same setting: under `Cc1cc(Nc2ccc(F)cc2)n2nc(SCc3ccc(Cl)cc3)nc2n1` stands 1890 nM; under `Cc1cc(Nc2ccc(F)cc2)n2nc(SCc3cccc([N+](=O)[O-])c3)nc2n1`, 1990 nM. In the case of `Cc1cc(Nc2ccc(F)cc2)n2nc(SCc3cccc(Br)c3)nc2n1`, in series [1], the half-maximal inhibitory concentration (IC50) was 2040 nM.

As to `C=CCSc1nc2nc(C)cc(Nc3ccc(F)cc3)n2n1`, in series [1], the 50% inhibitory concentration (IC50) worked out at 4200 nM.

In the case of `Cc1cc(Nc2ccc(F)cc2)n2nc(SCCCc3ccccc3)nc2n1`, in series [1], the concentration for half-maximal inhibition (IC50) turned out to be 4220 nM. Same read-out and setting: under `C#Cc1cccc(Nc2cc(C)nc3nc(SCc4nc5ccccc5[nH]4)nn23)c1` stands 1430 nM. With `Cc1cc(Nc2ccc(F)cc2)n2nc(SCc3nc4ccccc4[nH]3)nc2n1`, the IC50 was found to be 4.8 nM in series [2]; 22 nM in series [3]; 22 nM in series [4]; 5 nM in series [5]; 73.6 nM in series [6]; 22 nM in series [1]. Further, in series [7], the IC50 came out at 10 nM. Take `Cc1cc(Nc2ccc(C#N)cc2)n2nc(SCc3nc4ccccc4[nH]3)nc2n1`: in series [1], the half-maximal inhibitory concentration (IC50) is 590 nM.

The values are drawn from BindingDB's records for doi:10.1021/acs.jmedchem.0c01741 (Zhengzhou University, 2020).
